Assays:
[1] = Plasma protein binding, equilibrium dialysis; type: in vitro ADME, human
Description: (§1) Additional Data on Preclinical PK Profile—Protein binding of the compound of Formula (III) was studied using an equilibrium dialysis method in plasma from human, cynomolgus monkey, beagle dog, Sprague Dawley rat, CD-1 mouse, and guinea pig at 0.25, 2.5, and 25 μM. […] In human and monkey, the plasma protein binding was concentration dependent. […] Free fraction of the compound of Formula (III) in liver microsomes from various species ranged from 75.1% to 87.9% at 0.25 mg/mL and from 58.9% to 86.5% at 1.0 mg/mL (Table 17). […] In hepatocytes, the compound of Formula (III) turnover followed a similar trend, with T1/2 ranging from 75.3 minutes in monkey to 278.1 minutes in human.

[2] = Blood-to-plasma concentration ratio; type: in vitro ADME; settings: rat, fresh blood
[3] = Metabolic stability in liver microsomes; type: in vitro ADME, monkey
Description: as §1

[4] = Metabolic stability in liver microsomes; type: in vitro ADME, dog
Description: as §1

[5] = Metabolic stability in liver microsomes; type: in vitro ADME, rat
Description: as §1

[6] = Metabolic stability in hepatocytes; type: in vitro ADME, monkey
Description: as §1

[7] = Intestinal microsomal stability; type: in vitro ADME; settings: intestinal microsomes
Text: In human hepatocytes, the compound of Formula (III) is metabolized by CYP3A through mono-oxidations and N-dealkylations and by GSH conjugation to its acrylamide functionality. It bears moderate metabolic stability in hepatocytes across species and is slowly metabolized in human intestinal microsomes fortified with NADPH.

PXR = test: Puracyp DPX2 luciferase-reporter cell line (CYP3A4 induction); type: in vitro ADME
Description: To assess the potential of the compound of Formula (III) to be a time-dependent inhibitor of CYP3A, human liver microsomes were preincubated for 30 minutes at 37° C. with the compound of Formula (III) at concentrations up to 10 μM, and CYP3A activity was measured using testosterone as a probe substrate. […] The potential of the compound of Formula (III) to induce CYPs at the transcriptional level was assessed using Puracyp™ DPX2 (CYP3A4, PXR) and DRE (CYP1A2, AhR) luciferase-reporter cell lines; rifampicin and omeprazole were used as positive controls for CYP3A and CYP1A induction, respectively. The activation by the compound of Formula (III) was <20% of positive control values for PXR (6.6% and 14.1% at 1 and 10 μM change, respectively) or AhR (0.1% and 0.3% change, respectively). […] Potential involvement of various CYP isoforms in the metabolism of the compound of Formula (III) was investigated by measuring the parent compound remaining after 1-hour incubation with the compound of Formula (III) (1 μM) with recombinant CYPs (rCYPs) at 100 pmol P450/mL in the presence of 1 mM NADPH at 37° C. The only isozyme that produced notable the compound of Formula (III) turnover with <1% parent remaining after 1-hour incubation was CYP3A4 (FIG. 24). […]

CYP1A = test: CYP induction in plated human hepatocytes, phenacetin probe; type: in vitro ADME; settings: 48 hours
[8] = Preclinical PK, oral and IV; settings: dog, in vivo
BTK = BTK (Homo sapiens, UniProt Q06187); test: ActivX KiNativ native kinase profiling, Ramos cell lysates; type: binding; parameters: endogenous in cells
BTK, sequence (Q06187 whole entry): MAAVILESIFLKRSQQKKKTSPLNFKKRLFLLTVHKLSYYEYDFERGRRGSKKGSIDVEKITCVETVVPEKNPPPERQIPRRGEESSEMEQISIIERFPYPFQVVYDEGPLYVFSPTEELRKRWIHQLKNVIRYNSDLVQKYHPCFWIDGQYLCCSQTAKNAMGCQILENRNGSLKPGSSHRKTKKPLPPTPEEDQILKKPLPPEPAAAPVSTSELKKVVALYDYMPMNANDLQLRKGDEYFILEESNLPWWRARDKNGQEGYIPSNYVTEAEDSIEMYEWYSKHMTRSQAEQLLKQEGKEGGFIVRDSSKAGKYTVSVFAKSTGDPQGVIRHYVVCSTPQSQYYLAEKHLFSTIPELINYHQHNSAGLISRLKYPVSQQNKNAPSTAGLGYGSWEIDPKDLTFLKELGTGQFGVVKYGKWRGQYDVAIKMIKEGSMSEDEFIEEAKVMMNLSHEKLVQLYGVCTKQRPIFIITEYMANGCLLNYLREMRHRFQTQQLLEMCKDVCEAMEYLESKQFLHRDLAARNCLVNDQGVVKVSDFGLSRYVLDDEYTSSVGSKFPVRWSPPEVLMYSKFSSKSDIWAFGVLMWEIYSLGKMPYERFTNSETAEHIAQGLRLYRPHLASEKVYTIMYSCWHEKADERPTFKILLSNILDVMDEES
Description: RESULTS AND DISCUSSION—Selectivity—The compound of Formula (III) was evaluated in three selectivity panels to assess the potential for off-target pharmacology (Table 8). […] The kinase off-target profile of The compound of Formula (III) was assessed in a full human wild-type panel using radiometric kinase activity assays (KinaseProfiler™ and IC50Profiler™; Eurofins Scientific) (Table 9; FIG. 23). The compound of Formula (III) inhibited 4/278 kinases >50% at 1 micromolar, identifying BTK and the three other kinases having analogous Cys residues with the potential for covalent inhibition (BMX, TEC, BLK). […]. The cellular kinase selectivity of The compound of Formula (III) was established in native Ramos B cell kinome assays (KiNativ™; ActivX) confirmed BTK as the primary target with inhibition of BLK and TEC inhibition detected (Table 10).

C=CC(=O)N[C@H]1CCC[C@H]1NC(=O)c1sc2nccc3c2c1NC(=O)N3c1cnc(CC(C)C)cc1C (atropisomer, axis not shown) [compound of Formula (III), N-((1R,2S)-2-Acrylamidocyclopentyl)-5-(S)-(6-isobutyl-4-methylpyridin-3-yl)-4-oxo-4,5-dihydro-3H-1-thia-3,5,8-triazaacenaphthylene-2-carboxamide]
% Free in plasma ([1]; 2.5 μM): 3.1%
fraction unbound at 0.25 μM ([1]; human, plasma, 0.25 μM, read-out: % Free in plasma): 0.0169
fraction unbound at 25 μM ([1]; human, plasma, 25 μM, read-out: % Free in plasma): 0.0463
blood plasma ratio at 1 μM [2]: 1.37
Extraction Ratio, liver microsomes ([3]; Monkey): 0.65
microsomal CLint ([3]; monkey, liver microsomes): 61 µL/min/mg
half-life ([3]; monkey, liver microsomes, read-out: T1/2, liver microsomes): 11.4 min
Extraction Ratio, liver microsomes ([4]; Dog): 0.65
microsomal CLint ([4]; dog, liver microsomes): 40.6 µL/min/mg
half-life ([4]; dog, liver microsomes, read-out: T1/2, liver microsomes): 17.1 min
Extraction Ratio, liver microsomes ([5]; Rat): 0.58
microsomal CLint ([5]; rat, liver microsomes): 53.8 µL/min/mg
half-life ([5]; rat, liver microsomes, read-out: T1/2, liver microsomes): 12.9 min
Extraction Ratio, hepatocytes [6]: 0.78
hepatocyte CLint ([6]; monkey, hepatocytes): 66.3 µL/min/1e6 cells
half-life ([6]; monkey, hepatocytes, read-out: T1/2, hepatocytes): 75.3 min
microsomal CLint ([7]; Sprague Dawley, rat): < 3.9 µL/min/mg
microsomal CLint ([7]; beagle, dog): < 3.9 µL/min/mg
microsomal CLint ([7]; human): 14.1 µL/min/mg
PXR activation, % of positive control (rifampicin) (PXR; 1 μM): 6.6%
PXR activation, % of positive control (rifampicin) (PXR; 10 μM): 14.1%
change in CYP1A enzyme activity (CYP1A; 1 μM): 0.2%
change in CYP1A enzyme activity (CYP1A; 10 μM): 1.0%
clearance ([8]; iv): 11 ± 3 mL/min/kg
half-life ([8]; iv, read-out: IV T1/2 (converted)): 66 ± 6 min
Vd ([8]; iv, read-out: Vss): 0.8 ± 0.2 L/kg
Cmax ([8]; oral): 890 ± 286 ng/mL
Tmax ([8]; oral): 48 ± 18 min
AUC(0-inf) ([8]; oral, read-out: Oral AUCinf): 1960 ± 421 ng·h/mL
inhibition at 1 µM (BTK; Lys labelling): 90.3%
inhibition at 1 µM (BTK; activation loop labeling): 94.4%
